Experimental data: paper PMC11695783 (Frontiers in Pharmacology, 2024)
≈ marks a conversion by molar mass, not a printed value. Read-outs that look alike come from different tables or passages of the source.

Key:
[1] = broilers, cited from earlier work
M. pneumoniae = tested on: M. pneumoniae; parameters: method as in Eraikhuemen et al., 2021; settings: against M. pneumoniae; ref Eraikhuemen et al., 2021; cited from earlier work
[2] = 2020, cited from earlier work; for AUC0-∞: ref Zuo et al.; for bioavailability: mice, ref Wang Y. et al., 2024, Zuo et al.
[3] = parameters: method as in Wang Y. et al., 2024; Zuo et al., 2020; settings: chickens, ref Wang Y. et al., 2024, Zuo et al., 2020, cited from earlier work
mice = settings: oral acute toxicity; ref Fan et al., 2022; Hu et al.; Zhang et al., 2015; Zuo et al., 2020; cited from earlier work
[4] = tested on: Mycoplasma pneumoniae strain M129 (ATCC 29342); test: Susceptibility assay (broth microdilution MIC, MBC); assay type: cell-based
Description: (§1) Mycoplasma pneumoniae strain M129 (ATCC 29342) was obtained from American Type Culture Collection (Manassas, VA, United States) and cultured at 37°C in the presence of 5% CO2 in the modified SP-4 liquid medium (pH 7.4) containing 2.1% (w/v) CM1166 mycoplasma broth base medium (Oxoid, Hants, United Kingdom), 20% (v/v) fetal bovine serum (FBS, Bioexplorer, CO, United States), 0.4% yeast extract (Oxoid), 0.55% (w/v) CMRL 1066 w/L-glutamine culture media powder (MyBioSource, San Diego, CA, United States), 1% D-glucose (Macklin) and 0.004% phenol red (Macklin). […] The solid medium is based on the above formula with the addition of 1% agar, and the characteristic fried egg-like colonies were used for experiments following incubation for 7 d on plates.
The broth microdilution MIC procedure was performed according to standardized methods for microdilution susceptibility testing of mycoplasma species ([Waites et al., 2012]). […] The concentration of organisms should be determined to approximately 10^6 CFU/mL prior to inoculation into 96-well plates. Due to the action of phenol red, the acidic metabolites of microbial growth can turn the medium yellow. […] The MBC assays were performed based on MICs following endpoint reading and the liquid in the high-concentration wells was removed for bacterial counting.

[5] = tested on: Mycoplasma pneumoniae strain M129 (ATCC 29342); test: Time-kill curves; assay type: cell-based; parameters: M. pneumoniae count in time-kill curve: unit not given here
Description: as §1
The tubes were incubated at 37°C in 5% CO2 for 72 h, and 200 µL of the culture was removed every 12 h for 10-fold serial dilutions. The diluted cultures were plated on plates for further culture and counted after 7 d. The experiment was repeated three times.

## C=C[C@]1(C)C[C@@H](OC(=O)CSC(C)(C)CNC(=O)[C@H](N)C(C)C)[C@]2(C)[C@H](C)CC[C@]3(CCC(=O)[C@H]32)[C@@H](C)[C@@H]1O [valnemulin]
[1]; IM, ref WANG et al., 2011
  bioavailability: 88.81%

## C=C[C@]1(C)C[C@@H](OC(=O)CS[C@@H]2CC[C@@H](N)C[C@H]2O)[C@]2(C)[C@H](C)CC[C@]3(CCC(=O)[C@H]32)[C@@H](C)[C@@H]1O [lefamulin]
M. pneumoniae
  MIC90: 6 ng/mL (≈ 0.0118 µM)

## C=C[C@]1(C)C[C@@H](OC(=O)CSc2ccccc2N)[C@]2(C)[C@H](C)CC[C@]3(CCC(=O)[C@H]32)[C@@H](C)[C@@H]1O [amphenmulin, 22-(2-amino-phenylsulfanyl)-22-deoxypleuromutilin]
[2]; intraperitoneal, at the same dose
  AUC0-∞: 2.52 µg·h/mL
[2]; intravenous, at the same dose as compound 16C
  AUC0-∞: 12.23 µg·h/mL
[2]; IP
  bioavailability: 20.71%
[2]; PO
  bioavailability: 13.65%
[2]; oral, at the same dose
  AUC0-∞: 1.67 µg·h/mL
[3]; IM
  bioavailability: 52.14%
[3]; PO
  bioavailability: 5.88%
mice
  LD50: > 5,000 mg/kg

## C=C[C@]1(C)C[C@@H](OC(=O)CSc2nnc(N)s2)[C@]2(C)[C@H](C)CC[C@]3(CCC(=O)[C@H]32)[C@@H](C)[C@@H]1O [ATTM, 14-o-[(2-amino-1,3,4-thiadiazol-5-yl)thioacetyl] mutilin]
[1]; IM, ref Shang et al., 2018, Xianhui, 2010
  bioavailability: 75.29%
[1]; PO, ref Shang et al., 2018, Xianhui, 2010
  bioavailability: 72.03%
mice
  LD50: 2,304.4 mg/kg

## CC[C@H]1OC(=O)[C@H](C)[C@@H](O[C@H]2C[C@@](C)(OC)[C@@H](O)[C@H](C)O2)[C@H](C)[C@@H](O[C@@H]2O[C@H](C)C[C@H](N(C)C)[C@H]2O)[C@](C)(O)C[C@@H](C)C(=O)[C@H](C)[C@@H](O)[C@]1(C)O [erythromycin]
[4]; M. pneumoniae strain M129, ≈96 h, read-out: MIC
  MIC: 0.016 µg/mL (≈ 0.0218 µM)
[4]; M. pneumoniae strain M129, read-out: MBC
  MBC: 0.032 µg/mL (≈ 0.0436 µM)
[5]; 1×MIC, time 0
  M. pneumoniae count in time-kill curve: 7.138
[5]; 1×MIC, time 12
  M. pneumoniae count in time-kill curve: 6.145
[5]; 1×MIC, time 24
  M. pneumoniae count in time-kill curve: 6.32
[5]; 1×MIC, time 36
  M. pneumoniae count in time-kill curve: 5.109
[5]; 1×MIC, time 48
  M. pneumoniae count in time-kill curve: 4.8395
[5]; 1×MIC, time 60
  M. pneumoniae count in time-kill curve: 5.816
[5]; 1×MIC, time 72
  M. pneumoniae count in time-kill curve: 6.113
[5]; 2 × MIC, 72 h exposure
  decrease of bacterial load: 3.61 log10 CFU/mL
[5]; 2×MIC, time 0
  M. pneumoniae count in time-kill curve: 7.138
[5]; 2×MIC, time 12
  M. pneumoniae count in time-kill curve: 6.411
[5]; 2×MIC, time 24
  M. pneumoniae count in time-kill curve: 6.275
[5]; 2×MIC, time 36
  M. pneumoniae count in time-kill curve: 4.753
[5]; 2×MIC, time 48
  M. pneumoniae count in time-kill curve: 4.288
[5]; 2×MIC, time 60
  M. pneumoniae count in time-kill curve: 4.145
[5]; 2×MIC, time 72
  M. pneumoniae count in time-kill curve: 3.53
[5]; 4×MIC, time 0
  M. pneumoniae count in time-kill curve: 7.138
[5]; 4×MIC, time 12
  M. pneumoniae count in time-kill curve: 6.078
[5]; 4×MIC, time 24
  M. pneumoniae count in time-kill curve: 6.148
[5]; 4×MIC, time 36
  M. pneumoniae count in time-kill curve: 4.203
[5]; 4×MIC, time 48
  M. pneumoniae count in time-kill curve: 3.916
[5]; 4×MIC, time 60
  M. pneumoniae count in time-kill curve: 3.913
[5]; 4×MIC, time 72
  M. pneumoniae count in time-kill curve: 3.415
[5]; 8×MIC, time 0
  M. pneumoniae count in time-kill curve: 7.138
[5]; 8×MIC, time 12
  M. pneumoniae count in time-kill curve: 6.379
[5]; 8×MIC, time 24
  M. pneumoniae count in time-kill curve: 6.145
[5]; 8×MIC, time 36
  M. pneumoniae count in time-kill curve: 4.163
[5]; 8×MIC, time 48
  M. pneumoniae count in time-kill curve: 3.977
[5]; 8×MIC, time 60
  M. pneumoniae count in time-kill curve: 3.326
[5]; 8×MIC, time 72
  M. pneumoniae count in time-kill curve: 3.283
[5]; 16×MIC, time 0
  M. pneumoniae count in time-kill curve: 7.138
[5]; 16×MIC, time 12
  M. pneumoniae count in time-kill curve: 6.732
[5]; 16×MIC, time 24
  M. pneumoniae count in time-kill curve: 6.1338
[5]; 16×MIC, time 36
  M. pneumoniae count in time-kill curve: 3.93
[5]; 16×MIC, time 48
  M. pneumoniae count in time-kill curve: 3.332
[5]; 16×MIC, time 60
  M. pneumoniae count in time-kill curve: 3.123
[5]; 16×MIC, time 72
  M. pneumoniae count in time-kill curve: 3.438
[5]; 32×MIC, time 0
  M. pneumoniae count in time-kill curve: 7.138
[5]; 32×MIC, time 12
  M. pneumoniae count in time-kill curve: 6.133
[5]; 32×MIC, time 24
  M. pneumoniae count in time-kill curve: 5.307
[5]; 32×MIC, time 36
  M. pneumoniae count in time-kill curve: 3.588
[5]; 32×MIC, time 48
  M. pneumoniae count in time-kill curve: 3.619
[5]; 32×MIC, time 60
  M. pneumoniae count in time-kill curve: 3.2228
[5]; 32×MIC, time 72
  M. pneumoniae count in time-kill curve: 3.181
[5]; 64×MIC, time 0
  M. pneumoniae count in time-kill curve: 7.138
[5]; 64×MIC, time 12
  M. pneumoniae count in time-kill curve: 6.741
[5]; 64×MIC, time 24
  M. pneumoniae count in time-kill curve: 5.886
[5]; 64×MIC, time 36
  M. pneumoniae count in time-kill curve: 3.638
[5]; 64×MIC, time 48
  M. pneumoniae count in time-kill curve: 3.377
[5]; 64×MIC, time 60
  M. pneumoniae count in time-kill curve: 2.841
[5]; 64×MIC, time 72
  M. pneumoniae count in time-kill curve: 2.68
[5]; static time-kill, 72 h
  concentration at which bactericidal effect was achieved: 2 × MIC
